Experimental findings from patent US6593480B2 (Abbott Laboratories, priority 1999, dated 2003) are described below.

This assay has as its target T1, progesterone receptor (PR) (Homo sapiens, UniProt P06401).
T1 sequence (P06401 1-933): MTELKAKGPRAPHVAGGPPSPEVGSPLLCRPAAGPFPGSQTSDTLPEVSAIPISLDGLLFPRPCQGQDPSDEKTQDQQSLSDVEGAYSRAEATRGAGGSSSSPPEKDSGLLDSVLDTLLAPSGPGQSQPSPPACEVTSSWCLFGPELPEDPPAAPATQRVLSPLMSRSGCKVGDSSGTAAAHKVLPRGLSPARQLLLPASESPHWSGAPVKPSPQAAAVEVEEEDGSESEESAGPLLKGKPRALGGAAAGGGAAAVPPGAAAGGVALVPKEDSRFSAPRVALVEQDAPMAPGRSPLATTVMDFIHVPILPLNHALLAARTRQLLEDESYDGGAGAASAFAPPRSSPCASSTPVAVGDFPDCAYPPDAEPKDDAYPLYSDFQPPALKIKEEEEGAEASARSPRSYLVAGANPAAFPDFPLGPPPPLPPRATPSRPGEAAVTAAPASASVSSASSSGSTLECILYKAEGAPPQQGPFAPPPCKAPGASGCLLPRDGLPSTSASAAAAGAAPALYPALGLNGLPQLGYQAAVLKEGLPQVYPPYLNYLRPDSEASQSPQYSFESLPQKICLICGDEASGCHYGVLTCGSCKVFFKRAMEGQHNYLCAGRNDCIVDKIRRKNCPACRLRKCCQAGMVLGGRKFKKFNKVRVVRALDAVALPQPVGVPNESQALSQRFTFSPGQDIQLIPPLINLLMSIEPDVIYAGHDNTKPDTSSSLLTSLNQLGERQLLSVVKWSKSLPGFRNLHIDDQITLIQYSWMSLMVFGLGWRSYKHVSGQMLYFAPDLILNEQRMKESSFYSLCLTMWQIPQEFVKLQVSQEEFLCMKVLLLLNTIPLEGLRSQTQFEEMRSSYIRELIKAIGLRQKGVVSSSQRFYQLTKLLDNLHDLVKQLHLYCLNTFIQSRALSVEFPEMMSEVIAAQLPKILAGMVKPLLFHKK
The assay is described as follows: Radioligand binding assay with progesterone receptor cytosol (similar protocol). The text has this: Methods for Radioligand Binding Studies with Human Glucocorticoid and Progesterone Receptor Cytosol
A similar protocol was employed to measure affinity of the compounds of the present invention for progesterone receptor (PR).
`COc1cccc2c1-c1ccc(NS(=O)(=O)c3ccccc3F)cc1C(c1ccccc1)O2` (stereo not shown) [Example 18]: the IC50 was more than 10000 nM. `COc1cccc2c1-c1ccc(NS(C)(=O)=O)cc1C(c1cccc(N(C)S(=O)(=O)c3ccc(Br)cc3)c1)O2` (stereo not shown) [Example 152, 4-bromo-N-(3-{1-methoxy-8-[(methylsulfonyl)amino]-6H-benzo[c]chromen-6-yl}phenyl)-N-methylbenzenesulfonamide] displayed an IC50 not below 10000 nM.

In turn, `COc1cccc2c1-c1ccc(NS(C)(=O)=O)cc1C(c1cccc(N(C)S(=O)(=O)CCCCl)c1)O2` (stereo not shown) [Example 130, 3-chloro-N-(3-{1-methoxy-8-[(methylsulfonyl)amino]-6H-benzo[c]chromen-6-yl}phenyl)-N-methyl-1-propanesulfonamide] yielded an IC50 of more than 10000 nM. The compound `COc1ccc(-c2cccc(C3Oc4cccc(OC)c4-c4ccc(NS(C)(=O)=O)cc43)c2)cc1` (stereo not shown) [Example 125, N-[1-methoxy-6-(4′-methoxy[1,1′-biphenyl]-3-yl)-6H-benzo[c]chromen-8-yl]methanesulfonamide] showed an IC50 of more than 10000 nM.

`CCS(=O)(=O)N(C)c1cccc(C2Oc3cccc(OC)c3-c3ccc(NS(C)(=O)=O)cc32)c1` (stereo not shown) [Example 131, N-(3-{1-methoxy-8-[(methylsulfonyl)amino]-6H-benzo[c]chromen-6-yl}phenyl)-N-methylethanesulfonamide] had an IC50 of more than 10000 nM. With `CS(=O)(=O)Nc1ccc2c(c1)C(c1ccc(Br)cc1)Oc1cccc(OC(F)F)c1-2` (stereo not shown) [Example 109, N-[6-(4-bromophenyl)-1-(difluoromethoxy)-6H-benzo[c]chromen-8-yl]methanesulfonamide], the 50% inhibitory concentration (IC50) was 250 nM.

For `CS(=O)(=O)Nc1ccc2c(c1)C(c1cccc(-c3ccc(F)cc3)c1)Oc1cccc(OC(F)F)c1-2` (stereo not shown) [Example 144, N-[1-(difluoromethoxy)-6-(4′-fluoro[1,1′-biphenyl]-3-yl)-6H-benzo[c]chromen-8-yl]methanesulfonamide], the half-inhibitory concentration (IC50) is 140 nM. Next, `CS(=O)(=O)Nc1ccc2c(c1)C(c1cccc(-c3ccc(Cl)cc3)c1)Oc1cccc(OC(F)F)c1-2` (stereo not shown) [Example 143, N-[6-(4′-chloro[1,1′-biphenyl]-3-yl)-1-(difluoromethoxy)-6H-benzo[c]chromen-8-yl]methanesulfonamide]: 220 nM; `COc1cccc2c1-c1ccc(CS(N)(=O)=O)cc1C(c1cccc(Cl)c1)O2` (stereo not shown) [Example 60, (1-methoxy-6-(3-chlorophenyl)-6H-dibenzo(b,d)pyran-8-yl)methanesulfonamide]: 500 nM; `CCCS(=O)(=O)N(C)c1cccc(C2Oc3cccc(OC)c3-c3ccc(NS(C)(=O)=O)cc32)c1` (stereo not shown) [Example 132, N-(3-{1-methoxy-8-[(methylsulfonyl)amino]-6H-benzo[c]chromen-6-yl}phenyl)-N-methyl-1-propanesulfonamide]: more than 10000 nM. `COc1cccc2c1-c1ccc(NS(C)(=O)=O)cc1C(c1cc(C)cc(C)c1)O2` (stereo not shown) [Example 87, N-[6-(3,5-dimethylphenyl)-1-methoxy-6H-benzo[c]chromen-8-yl]methanesulfonamide] came in with an IC50 of 210 nM. For `COc1cccc2c1-c1ccc(NS(C)(=O)=O)cc1C(c1cccc(C#Cc3ccccc3)c1)O2` (stereo not shown) [Example 91, N-{1-methoxy-6-[3-(phenylethynyl)phenyl]-6H-benzo[c]chromen-8-yl}methanesulfonamide], the IC50 was more than 1000 nM. For the compound `C=CCOc1cccc(C2Oc3cccc(OC(F)F)c3-c3ccc(NS(C)(=O)=O)cc32)c1` (stereo not shown) [Example 116, N-[6-[3-(allyloxy)phenyl]-1-(difluoromethoxy)-6H-benzo[c]chromen-8-yl]methanesulfonamide], the IC50 is 1050 nM. The compound `CS(=O)(=O)Nc1ccc2c(c1)C(c1cccc(CCCCCCC#N)c1)Oc1cccc(OC(F)F)c1-2` (stereo not shown) [Example 137, N-[6-[3-(6-cyanohexyl)phenyl]-1-(difluoromethoxy)-6H-benzo[c]chromen-8-yl]methanesulfonamide] had an IC50 of more than 10000 nM. Compound `CS(=O)(=O)Nc1ccc2c(c1)C(c1cccc(Br)c1)Oc1cccc(OC(F)F)c1-2` (stereo not shown) [Example 103, N-[6-(3-bromophenyl)-1-(difluoromethoxy)-6H-benzo[c]chromen-8-yl]methanesulfonamide] gave an IC50 of 180 nM. Turning to `CCOC(=O)CCc1cccc(C2Oc3cccc(OC(F)F)c3-c3ccc(NS(C)(=O)=O)cc32)c1` (stereo not shown) [Example 118, ethyl 3-(3-{1-(difluoromethoxy)-8-[(methylsulfonyl)amino]-6H-benzo[c]chromen-6-yl}phenyl)propanoate], the IC50 is 610 nM. For `CCOCCCc1cccc(C2Oc3cccc(OC(F)F)c3-c3ccc(NS(C)(=O)=O)cc32)c1` (stereo not shown) [Example 120, N-{1-(difluoromethoxy)-6-[3-(3-ethoxypropyl)phenyl]-6H-benzo[c]chromen-8-yl}methanesulfonamide] the value was 500 nM; for `Cc1ccc(-c2cccc(C3Oc4cccc(OC(F)F)c4-c4ccc(NS(C)(=O)=O)cc43)c2)cc1` (stereo not shown) [Example 147, N-[1-(difluoromethoxy)-6-(4′-methyl[1,1′-biphenyl]-3-yl)-6H-benzo[c]chromen-8-yl]methanesulfonamide], 530 nM; for `CS(=O)(=O)Nc1ccc2c(c1)C(c1cccc(F)c1)Oc1cccc(OC(F)F)c1-2` (stereo not shown) [Example 107, N-[1-(difluoromethoxy)-6-(3-fluorophenyl)-6H-benzo[c]chromen-8-yl]methanesulfonamide], 60 nM. Take `CS(=O)(=O)Nc1ccc2c(c1)C(c1cccc(-c3ccccc3Cl)c1)Oc1cccc(OC(F)F)c1-2` (stereo not shown) [Example 146, N-[6-(2′-chloro[1,1′-biphenyl]-3-yl)-1-(difluoromethoxy)-6H-benzo[c]chromen-8-yl]methanesulfonamide]: the IC50 was 260 nM. The compound `CCCCC/C=C/C1Oc2cccc(OC)c2-c2ccc(NS(C)(=O)=O)cc21` (stereo not shown) [Example 98, N-{6-[(1E)-1-heptenyl]-1-methoxy-6H-benzo[c]chromen-8-yl}methanesulfonamide] had a 50% inhibitory concentration (IC50) of 92 nM.

In the case of `Nc1ccc2c(c1Br)C(c1ccccc1)Oc1cccc(OC(F)F)c1-2` (stereo not shown) [Example 4, 8-Amino-7-bromo-1-difluoromethoxy-6-phenyl-6H-dibenzo[b,d]pyran], the IC50 turned out to be 460 nM. In turn, `COc1cccc2c1-c1ccc(NS(C)(=O)=O)cc1C(c1cccc(-c3ccc(C)cc3)c1)O2` (stereo not shown) [Example 123, N-[1-methoxy-6-(4′-methyl[1,1′-biphenyl]-3-yl)-6H-benzo[c]chromen-8-yl]methanesulfonamide] displayed an IC50 of more than 10000 nM. `C=CCN(C)c1cccc(C2Oc3cccc(OC)c3-c3ccc(NS(C)(=O)=O)cc32)c1` (stereo not shown) [Example 80, N-(6-{3-[allyl(methyl)amino]phenyl}-1-methoxy-6H-benzo[c]chromen-8-yl)methanesulfonamide] yielded an IC50 of 620 nM. As to `COc1cccc2c1-c1ccc(NS(C)(=O)=O)cc1C(c1cccc(-c3ccc(Cl)c(Cl)c3)c1)O2` (stereo not shown) [Example 127, N-[6-(3′,4′-dichloro[1,1′-biphenyl]-3-yl)-1-methoxy-6H-benzo[c]chromen-8-yl]methanesulfonamide], the IC50 was more than 10000 nM.

For `COc1cccc2c1-c1ccc(NS(C)(=O)=O)cc1C(c1ccc(-c3ccccc3)s1)O2` (stereo not shown) [Example 100, N-[1-methoxy-6-(5-phenyl-2-thienyl)-6H-benzo[c]chromen-8-yl]methanesulfonamide], the IC50 amounted to 250 nM. `CCOC(=O)CCCCCc1cccc(C2Oc3cccc(OC(F)F)c3-c3ccc(NS(C)(=O)=O)cc32)c1` (stereo not shown) [Example 119, ethel 6-(3-{1-(difluoromethoxy)-8-[(methylsulfonyl)amino]-6H-benzo[c]chromen-6-yl}phenyl)hexanoate] yielded an IC50 of 1960 nM. Next, `COc1cccc2c1-c1ccc(NS(C)(=O)=O)cc1C(c1ccc(C#Cc3ccccc3)s1)O2` (stereo not shown) [Example 93, N-{1-methoxy-6-[5-(phenylethynyl)-2-thienyl]-6H-benzo[c]chromen-8-yl}methanesulfonamide]: more than 1000 nM; `COc1cccc(-c2cccc(C3Oc4cccc(OC)c4-c4ccc(NS(C)(=O)=O)cc43)c2)c1` (stereo not shown) [Example 124, N-[1-methoxy-6-(3′-methoxyl[1,1′-biphenyl]-3-yl)-6H-benzo[c]chromen-8-yl]methanesulfonamide]: more than 10000 nM; `COc1cccc2c1-c1ccc(NS(C)(=O)=O)cc1C(c1cccc(N(C)S(=O)(=O)c3ccccc3)c1)O2` (stereo not shown) [Example 129, N(3-{1-methoxy-8-[(methylsulfonyl)amino]-6H-benzo[c]chromen-6-yl}phenyl)-N-methylbenzenesulfonamide]: more than 10000 nM. The compound `COc1cccc(C2Oc3cccc(OC(F)F)c3-c3ccc(NS(C)(=O)=O)cc32)c1` (stereo not shown) [Example 108, N-[1-(difluoromethoxy)-6-(3-methoxyphenyl)-6H-benzo[c]chromen-8-yl]methanesulfonamide] displayed an IC50 of 170 nM.

A word on the IC50: it is the point on the concentration scale where inhibition reaches its midpoint.
